Reference: patent US10428060B2, “PI-kinase inhibitors with anti-infective activity” (The Board of Trustees of the Leland Stanford Junior …, priority 2011, dated 2019)

What was measured:
PI4KIIIB = biological target: T1, PI4KIIIB (Bos taurus, UniProt O02810); experiment: PI4KIIIB kinase assay; format: biochemical, bovine
T1 construct: made in house; host or cells: COS-7 cells, transient transfection, anti-HA immunoprecipitate on protein G Sepharose beads

PI3K p110a = biological target: T2, PI3K p110a (Homo sapiens, UniProt P42336); experiment: PI3K p110a kinase assay; format: biochemical
T2 construct: purchased Millipore
Description: In the assays described here, p110α-p85 complex and p110γ were acquired from Millipore. Assays were performed with Lα-phosphatidylinositol (Avanti) as described in Knight et al. Nat Protoc. […] Inhibitor series were prepared 10% DMSO as 5× stocks for the assay. […] COS-7 cells were cultured in 10 cm dishes and transfected at 70% confluence with 10 μg of plasmid DNA (HA-tagged bovine PI4KIIIβ, HA-tagged human PI4KIIIα) using Lipofectamine 2000 and 5 ml Opti-MEM following the manufacturer's instructions. After 5 hours the transfection medium was replaced with 10 ml complete DMEM. 36 hrs post transfection, cells were washed once with 5 ml PBS (pH 7.4) and lysed in 1 ml of lysis buffer (1) on ice. […] To the lysates was added 200 μl of protein G Sepharose 4 fast flow beads that were prewashed with PBS and lysis buffer and 2 μg of anti-HA antibody. The tubes were then incubated overnight at 4 degrees C. in a tube rotator. […] Kinase reactions were run in a mixture of 45 μL of PI buffer (1 mM PI in kinase buffer), 10 μL of immunoprecipitated beads, 2 µL of inhibitors (dissolved and diluted in DMSO) or DMSO and 5 μL of [γ-^32P]-ATP (1 mM and 2 μCi/tube). […] Samples were counted in a scintillation beta counter after adding 5 ml of Instafluor (Perkin-Elmer). […]

PI3KC2G = biological target: T3, PI3KC2G (Homo sapiens, UniProt O75747); experiment: PI3KC2G kinase assay; format: biochemical
T3 sequence (O75747 1-1486): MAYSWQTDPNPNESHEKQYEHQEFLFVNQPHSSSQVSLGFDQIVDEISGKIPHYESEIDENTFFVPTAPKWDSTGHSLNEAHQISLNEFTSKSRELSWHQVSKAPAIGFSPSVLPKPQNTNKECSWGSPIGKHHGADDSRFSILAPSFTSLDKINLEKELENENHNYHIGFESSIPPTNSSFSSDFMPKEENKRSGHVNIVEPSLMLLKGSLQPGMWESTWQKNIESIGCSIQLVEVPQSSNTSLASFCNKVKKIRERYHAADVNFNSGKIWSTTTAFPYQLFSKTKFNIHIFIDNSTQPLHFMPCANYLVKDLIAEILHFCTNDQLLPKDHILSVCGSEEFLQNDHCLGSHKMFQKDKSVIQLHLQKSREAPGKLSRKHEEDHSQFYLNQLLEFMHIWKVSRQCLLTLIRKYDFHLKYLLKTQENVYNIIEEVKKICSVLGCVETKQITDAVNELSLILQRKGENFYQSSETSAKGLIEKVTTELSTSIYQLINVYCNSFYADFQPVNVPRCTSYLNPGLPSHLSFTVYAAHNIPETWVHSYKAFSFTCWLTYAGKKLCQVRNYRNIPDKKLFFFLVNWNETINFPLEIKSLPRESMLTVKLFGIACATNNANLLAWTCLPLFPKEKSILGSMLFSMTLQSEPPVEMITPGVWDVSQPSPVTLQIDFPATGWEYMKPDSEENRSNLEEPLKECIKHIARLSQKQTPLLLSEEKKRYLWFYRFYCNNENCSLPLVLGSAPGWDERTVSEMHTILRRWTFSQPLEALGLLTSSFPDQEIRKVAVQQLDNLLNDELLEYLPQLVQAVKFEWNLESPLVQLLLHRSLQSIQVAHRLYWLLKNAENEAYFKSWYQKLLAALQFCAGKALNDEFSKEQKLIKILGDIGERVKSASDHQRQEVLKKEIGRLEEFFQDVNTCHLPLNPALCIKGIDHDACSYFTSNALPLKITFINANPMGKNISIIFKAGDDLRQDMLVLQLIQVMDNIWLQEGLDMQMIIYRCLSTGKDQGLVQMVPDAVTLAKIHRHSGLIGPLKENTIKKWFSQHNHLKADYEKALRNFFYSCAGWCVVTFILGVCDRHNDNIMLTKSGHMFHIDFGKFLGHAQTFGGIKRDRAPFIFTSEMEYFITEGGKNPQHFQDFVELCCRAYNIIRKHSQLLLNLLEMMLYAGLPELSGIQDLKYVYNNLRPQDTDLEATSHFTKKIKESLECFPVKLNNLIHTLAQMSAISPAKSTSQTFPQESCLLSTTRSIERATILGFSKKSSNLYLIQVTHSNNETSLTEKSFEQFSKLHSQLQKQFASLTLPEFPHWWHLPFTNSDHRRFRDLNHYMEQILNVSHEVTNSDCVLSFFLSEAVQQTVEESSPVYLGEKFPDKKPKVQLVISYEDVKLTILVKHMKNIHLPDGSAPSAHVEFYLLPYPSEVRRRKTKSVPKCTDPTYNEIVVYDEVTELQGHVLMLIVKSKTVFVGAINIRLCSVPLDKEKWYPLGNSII

HRV = experiment: Rhinovirus antiviral assay; format: cell-based; conditions: Human rhinovirus sp.
HCV genotype 2a = experiment: microbe, parasite or virus in culture; format: cell-based; conditions: Hepatitis C virus, Huh7.5, read-out: HCV2a EC50

T2 sequence (P42336 whole entry): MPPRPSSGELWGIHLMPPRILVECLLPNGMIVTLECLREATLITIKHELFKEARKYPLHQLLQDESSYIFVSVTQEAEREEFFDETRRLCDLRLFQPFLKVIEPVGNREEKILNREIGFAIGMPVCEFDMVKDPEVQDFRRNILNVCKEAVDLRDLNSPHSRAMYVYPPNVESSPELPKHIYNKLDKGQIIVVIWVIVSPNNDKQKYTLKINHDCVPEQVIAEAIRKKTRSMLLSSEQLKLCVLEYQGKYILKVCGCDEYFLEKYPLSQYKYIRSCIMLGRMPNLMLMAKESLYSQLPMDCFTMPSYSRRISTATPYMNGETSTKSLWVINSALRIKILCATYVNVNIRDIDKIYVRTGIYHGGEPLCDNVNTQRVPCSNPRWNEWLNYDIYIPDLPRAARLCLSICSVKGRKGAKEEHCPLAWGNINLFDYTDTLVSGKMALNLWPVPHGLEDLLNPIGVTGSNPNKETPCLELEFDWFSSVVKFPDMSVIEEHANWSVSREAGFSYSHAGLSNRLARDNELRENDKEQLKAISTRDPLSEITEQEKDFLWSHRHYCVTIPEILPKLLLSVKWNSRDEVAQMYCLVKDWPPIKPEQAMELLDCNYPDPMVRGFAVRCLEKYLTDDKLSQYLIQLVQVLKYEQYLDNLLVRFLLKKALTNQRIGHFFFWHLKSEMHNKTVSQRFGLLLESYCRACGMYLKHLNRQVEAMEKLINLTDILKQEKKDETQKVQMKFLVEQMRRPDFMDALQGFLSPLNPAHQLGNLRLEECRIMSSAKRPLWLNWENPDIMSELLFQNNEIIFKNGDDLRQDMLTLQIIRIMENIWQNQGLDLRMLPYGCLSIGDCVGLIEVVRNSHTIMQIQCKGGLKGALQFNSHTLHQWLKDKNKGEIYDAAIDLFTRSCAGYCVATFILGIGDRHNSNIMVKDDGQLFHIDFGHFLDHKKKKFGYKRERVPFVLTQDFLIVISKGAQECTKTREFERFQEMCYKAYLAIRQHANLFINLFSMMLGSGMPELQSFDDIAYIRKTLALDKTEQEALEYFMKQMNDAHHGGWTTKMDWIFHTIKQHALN
T2 sequence (P27986 whole entry partner): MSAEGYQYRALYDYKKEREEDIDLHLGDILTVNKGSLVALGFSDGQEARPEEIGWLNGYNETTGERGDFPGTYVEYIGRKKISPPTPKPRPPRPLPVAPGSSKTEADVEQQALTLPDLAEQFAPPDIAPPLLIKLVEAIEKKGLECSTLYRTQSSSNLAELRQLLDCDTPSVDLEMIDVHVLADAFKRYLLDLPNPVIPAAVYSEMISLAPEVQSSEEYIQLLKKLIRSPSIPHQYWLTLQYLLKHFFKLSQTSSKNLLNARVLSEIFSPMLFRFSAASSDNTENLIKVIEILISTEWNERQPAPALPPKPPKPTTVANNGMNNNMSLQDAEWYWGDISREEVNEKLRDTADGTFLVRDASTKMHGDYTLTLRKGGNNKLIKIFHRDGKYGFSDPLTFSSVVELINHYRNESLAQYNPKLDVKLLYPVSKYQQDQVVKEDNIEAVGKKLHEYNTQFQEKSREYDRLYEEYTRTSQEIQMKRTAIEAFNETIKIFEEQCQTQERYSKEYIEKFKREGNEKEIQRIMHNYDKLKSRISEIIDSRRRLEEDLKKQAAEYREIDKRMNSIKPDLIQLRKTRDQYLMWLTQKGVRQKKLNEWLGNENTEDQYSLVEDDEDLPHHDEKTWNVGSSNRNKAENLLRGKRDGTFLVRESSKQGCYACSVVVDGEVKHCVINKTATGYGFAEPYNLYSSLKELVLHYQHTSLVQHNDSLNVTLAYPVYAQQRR
T1 sequence (O02810 whole entry): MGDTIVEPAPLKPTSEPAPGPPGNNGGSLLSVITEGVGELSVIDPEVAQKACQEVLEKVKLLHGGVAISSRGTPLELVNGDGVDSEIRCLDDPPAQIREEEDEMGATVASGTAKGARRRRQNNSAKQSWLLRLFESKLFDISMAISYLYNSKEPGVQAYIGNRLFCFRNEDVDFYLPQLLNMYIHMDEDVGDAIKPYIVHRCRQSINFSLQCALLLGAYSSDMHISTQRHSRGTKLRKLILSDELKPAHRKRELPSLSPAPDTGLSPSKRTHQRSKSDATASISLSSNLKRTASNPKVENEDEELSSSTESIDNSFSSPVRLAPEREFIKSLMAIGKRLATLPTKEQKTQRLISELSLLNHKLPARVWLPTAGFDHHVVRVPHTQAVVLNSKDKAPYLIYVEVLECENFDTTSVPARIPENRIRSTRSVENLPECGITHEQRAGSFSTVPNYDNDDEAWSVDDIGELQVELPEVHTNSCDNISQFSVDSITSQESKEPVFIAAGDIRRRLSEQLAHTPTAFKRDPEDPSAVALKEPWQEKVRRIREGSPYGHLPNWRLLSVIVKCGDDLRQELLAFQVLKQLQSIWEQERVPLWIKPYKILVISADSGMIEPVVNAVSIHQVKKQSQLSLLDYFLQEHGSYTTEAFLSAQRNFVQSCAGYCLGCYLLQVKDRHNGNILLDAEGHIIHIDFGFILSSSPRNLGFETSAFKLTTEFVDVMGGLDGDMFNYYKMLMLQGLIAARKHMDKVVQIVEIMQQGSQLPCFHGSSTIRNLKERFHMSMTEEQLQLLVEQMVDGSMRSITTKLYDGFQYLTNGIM

SMILES: COc1ncc(-c2sc(NC(=O)CC3CCOCC3)nc2C)cc1S(=O)(=O)NC1CCCC(O)C1 (centres unmarked) [Compound S-263]
- IC50 (PI4KIIIB): < 100 nM
- IC50 (PI3K p110a): 1000 to 10000 nM
- IC50 (PI3KC2G): 100 to 1000 nM
- EC50 (HRV): 1000 to 10000 nM
- EC50 (HCV genotype 2a): 1 to 100 nM
